Measured values: US12240854B2, “TRAF 6 inhibitors” (Helmholtz Zentrum München - Deutsches Forschungszentrum für …, priority 2018, dated 2025)
Entries after “also recorded” stand apart in the source; their conditions may differ.

Experiments:
[1] = system: Collagen-Induced Arthritis (CIA) Model in DBA1/J mice; test: Collagen-Induced Arthritis (CIA) model; type: in vivo, mouse
Protocol: In order to test the potential of C25-140 to ameliorate RA symptoms, a Collagen-Induced Arthritis (CIA) Model in DBA1/J mice was performed by Washington Biotechnology, Inc. (Baltimore, USA). Each group of ten mice was subjected to a single subcutaneous injection of collagen/complete Freund's Adjuvant emulsion (0.05 ml/mouse; 100 μg collagen/CFA). After 20 days (day 21), mice were booster injected with collagen (0.05 ml/mouse; 100 μg/mouse collagen in Incomplete Freund's Adjuvant). On day 28, mice were scored for their Arthritic Index (AI) and 14 days intraperitoneally dosed twice daily with 6 mg/kg, 10 mg/kg and 14 mg/kg C25-140, respectively. Mice were scored of macroscopic signs of arthritis daily. Thereby, the following scoring index was applied to each individual paw: 0=no visible effects of arthritis; 1=edema and/or erythema of 1 digit; 2=edema and/or erythema of 2 digits; 3=edema and/or erythema of more than 2 digits; 4=severe arthritis of entire paw and digits. Single paw scores were added and recorded. On day 42, animals were euthanized, limbs were collected and histopathology was performed using Toluidine blue staining with scoring of several parameters.

[2] = target: T1, MDM2 (Homo sapiens, UniProt Q00987); test: In vitro ubiquitination assay, MDM2 ubiquitin ligase kit (p53 substrate); type: biochemical; conditions: K48 chain formation
T1 construct: purchased Boston Biochem
Protocol: For analysis of cIAP1, MDM2, TRIM63, RNF4, ITCH and E6AP mediated poly-ubiquitination, the respective ubiquitin ligase kit from Boston Biochem (K-102, K-260, K-200B, K-220, K-240 and K-270) was used. Here, reaction buffer, E1, E2 and E3 enzyme (and p53 substrate in case of MDM2) were mixed and pre-incubated with compound or DMSO for 5 minutes at room temperature before adding Mg^2+-ATP and mono-ubiquitin for reaction start. Ubiquitination was visualized by Western Blot analyses.

[3] = target: T2, TRAF6 (Homo sapiens, UniProt Q9Y4K3); test: In vitro ubiquitination assay (Western blot), TRAF6 with Ubc13/Uev1a; type: biochemical
T2 construct: GST (N, cleaved yes); made in house; host or cells: E. coli BL21 codon plus RIPL (TRAF6); E1, E2 complex and ubiquitin from Boston Biochem
Protocol: The ability of TRAF6 to form K63-linked poly-ubiquitin chains in conjunction with Ubc13 was analyzed after compound treatment. Therefore, untagged TRAF6WT and TRAF6D57K, respectively were recombinantly purified. 0.125 μM of TRAF6 protein was pre-incubated with DMSO or compound in a total volume of 100 μL in K63 assay buffer ([…] Tris —HCl pH 7.6; […] MgCL2; […] creatine phosphate; 0.3 U/mL inorganic pyrophosphatase; 0.3 U/mL creatine phosphokinase) for 30 minutes at room temperature. Small aliquots for input samples were taken. A master mix containing 0.01 μM E1-activating enzyme (UBE1) (Boston Biochem), 0.2 μM E2-conjugating enzyme complex (Ubc13/Uev1a) (Boston Biochem), 1 mM ZnCl2, 2 mM ATP und 4 μM mono-ubiquitin (Boston Biochem) was added to the TRAF6 protein and the reaction mixture was incubated for 120 minutes at 37° C. The reaction was stopped by adding 4×SDS loading buffer and boiling at 95° C. for 5 minutes. The input samples were analyzed using the Pierce Silver Stain Kit (Thermo Fisher Scientific). Ubiquitination was detected in Western Blot analysis using an ubiquitin antibody.

[4] = target: T3, TRAF6 RZ1 protein (Homo sapiens, UniProt Q9Y4K3); test: Two-dimensional NMR (SOFAST-HMQC) binding experiment; conditions: protein:compound 1:5
T3 construct: GST (N, cleaved yes); made in house; host or cells: E. coli BL21 codon plus RIPL, M9 medium with 15NH4
Protocol: To determine whether the inhibitory compounds directly bind to TRAF6 rather than to Ubc13, 2D-NMR experiments were conducted. Untagged ^15N-labeled TRAF6 RZ1 protein (c=120 μM) and compound (c=20 mM) were incubated at a ratio of 1:5 in a 3 mm NMR tube for 10 minutes before spectra acquisition. To observe chemical shift perturbations upon compound addition, two-dimensional SOFAST-HMQC spectra were acquired. All measurements were performed using the Bruker Avance 600 MHz spectrometer.

[5] = system: Diet-Induced-Obesity (DIO) mice; test: Diet-Induced-Obesity (DIO) mouse study; type: in vivo; conditions: 7.4 mg/kg IP once daily
Protocol: Mice were fed a high-fat-diet until they reached a body weight of at least 40 g and developed […]. These mice were separated in control group and a group for C25-140 (compound 3) injection. Mice were treated every day with 14 μmol/kg (=7.4 mg/kg) C25-140 intraperitoneally for a period of 20 days. Thereby, C25-140 was dissolved in 2.9% DMSO, 1.5% Tween-80 and 1×PBS. Every day before injection, the body weight and food intake were measured. On day 20, mice were sacrificed two hours after compound injection and […] white adipose tissue from both body sites was removed, frozen in liquid nitrogen and stored at −80° C.

[6] = system: p-IκBα (Ser32/36) in MEF cells; test: ALPHASurefire p-IκBα / total IκBα in MEF cells; type: cell-based, mouse; conditions: IL-1β
Protocol: In order to detect protein levels of p-IκBα (Ser32/36) as well as total IκBa, 1×10^4 MEF cells were seeded in 96-well plates, treated with compound for 6 hours and stimulated with 1 ng/ml IL-1β for 7 minutes. The p-IκBα and total IκBα protein levels were analyzed using the ALPHASurefire kits (PerkinElmer) following the manufacturer's instruction. The general 2-plate protocol was conducted.

T1 sequence (Q00987 whole entry): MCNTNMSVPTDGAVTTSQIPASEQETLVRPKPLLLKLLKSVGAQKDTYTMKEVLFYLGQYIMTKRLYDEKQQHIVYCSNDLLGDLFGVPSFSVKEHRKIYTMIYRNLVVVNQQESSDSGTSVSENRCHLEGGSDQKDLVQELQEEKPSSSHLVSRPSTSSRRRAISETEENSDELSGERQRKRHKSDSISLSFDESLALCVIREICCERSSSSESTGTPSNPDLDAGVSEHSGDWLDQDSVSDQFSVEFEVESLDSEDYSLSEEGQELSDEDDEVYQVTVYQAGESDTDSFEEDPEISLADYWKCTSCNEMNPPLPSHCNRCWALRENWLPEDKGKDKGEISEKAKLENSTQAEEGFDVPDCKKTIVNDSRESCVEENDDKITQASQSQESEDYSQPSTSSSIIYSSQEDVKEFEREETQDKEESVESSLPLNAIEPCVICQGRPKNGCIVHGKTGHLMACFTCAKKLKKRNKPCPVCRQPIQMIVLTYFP
T3 sequence (Q9Y4K3 with tags, fused parts or gaps): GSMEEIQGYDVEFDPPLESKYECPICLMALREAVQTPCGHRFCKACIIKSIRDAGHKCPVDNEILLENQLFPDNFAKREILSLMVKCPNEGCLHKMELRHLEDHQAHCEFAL
T2 sequence (Q9Y4K3 with tags, fused parts or gaps): as above

## Cc1nn(-c2ccc3nnc(C)n3n2)c(C)c1CCC(=O)N1CCC(Cc2ccccc2)CC1 [Example C25-140, 1-(4-Benzylpiperidin-1-yl)-3-(3,5-dimethyl-1-(3-methyl-[1,2,4]-triazolo-[4,3-b]-pyridazin-6-yl)-1H-pyrazol-4-yl)-propan-1-one]
[1]; 6, 10 and 14 mg/kg IP twice daily, 14 days
  arthritic index (AI): dose-dependently reduced
[1]; CIA mouse model
  RA symptoms / disease outcome (in words): ameliorates RA disease outcomes; also recorded: successfully counteracted clinical symptoms of RA and reversed the disease state; also recorded: eases symptoms
[1]; day 42
  histological score of the limbs (inflammation, pannus formation, cartilage damage, bone resorption): dose-dependently improves RA symptoms; also recorded: attenuated
[1]; doses of 10 mg/kg and 14 mg/kg IP twice daily
  arthritic index (AI): almost completely ameliorated the arthritic index to baseline levels
[1]; throughout the study
  body weight: did not show any signs of reduction; also recorded: do not show any signs of weight loss
[2]
  p53 ubiquitination by MDM2: not influenced; also recorded: not affected
[3]
  ability of TRAF6 and Ubc13 to form free poly-ubiquitin chains: dose-dependently diminished TRAF6 E3 ligase activity; also recorded: dose-dependently impairs
[4]
  direct binding to TRAF6 RZ1 protein (shifting or disappearing of NMR peaks): directly binds to the TRAF6 protein
[5]; 20 days
  food intake: did not differ; also recorded: remains unaffected
[5]; 20 days, high-fat-diet
  body weight gain: reduces gain of weight; also recorded: hardly increased body weight; also recorded: milder body weight gain
[5]; day 20
  mRNA levels of IL-1β and VCAM in epidermal white adipose tissue: reduces IL-1β expression; also recorded: significantly reduced; also recorded: decreased
[6]
  activity in cell-based ALPHASurefire (NF-κB activation, p-IκBα): improved inhibitory activity; also recorded: more active
